In ChEMBL document CHEMBL1149464, “Structure-guided synthesis of tamoxifen analogs with improved selectivity for the orphan ERRgamma” (Bioorg Med Chem Lett, 2006):

Target: T1, Estrogen receptor (Homo sapiens, UniProt P03372)
T1 sequence (P03372 whole entry): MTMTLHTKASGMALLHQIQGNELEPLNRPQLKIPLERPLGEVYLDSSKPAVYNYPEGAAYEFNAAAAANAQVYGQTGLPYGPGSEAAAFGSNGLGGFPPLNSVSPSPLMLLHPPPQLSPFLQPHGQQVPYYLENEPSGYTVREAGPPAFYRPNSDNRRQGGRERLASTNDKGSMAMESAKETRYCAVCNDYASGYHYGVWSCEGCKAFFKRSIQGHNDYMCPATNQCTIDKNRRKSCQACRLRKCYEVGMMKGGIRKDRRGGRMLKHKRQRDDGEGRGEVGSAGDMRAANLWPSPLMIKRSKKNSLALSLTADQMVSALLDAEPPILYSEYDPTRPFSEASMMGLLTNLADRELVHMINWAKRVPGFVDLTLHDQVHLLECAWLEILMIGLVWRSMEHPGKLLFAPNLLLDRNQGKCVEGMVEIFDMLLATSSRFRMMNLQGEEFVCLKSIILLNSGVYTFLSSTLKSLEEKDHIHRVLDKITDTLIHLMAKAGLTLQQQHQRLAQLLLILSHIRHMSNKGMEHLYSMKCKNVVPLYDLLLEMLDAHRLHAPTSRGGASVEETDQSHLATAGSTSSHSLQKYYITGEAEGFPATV

SMILES | IC50
CN(C)CCOc1ccc(/C(=C(/CCN=[N+]=[N-])c2ccccc2)c2ccc(O)cc2)cc1 | 1 nM

Species: Homo sapiens
Test: Selectivity for ERRgamma over ERalpha relative to 4-hydroxytamoxifen; call rule not given here

SMILES | Ratio IC50
CN(C)CCOc1ccc(/C(=C(/CCN=[N+]=[N-])c2ccccc2)c2ccc(O)cc2)cc1 | 1.6

Target: T2, Estrogen-related receptor gamma (Homo sapiens, UniProt P62508)
T2 sequence (P62508 whole entry): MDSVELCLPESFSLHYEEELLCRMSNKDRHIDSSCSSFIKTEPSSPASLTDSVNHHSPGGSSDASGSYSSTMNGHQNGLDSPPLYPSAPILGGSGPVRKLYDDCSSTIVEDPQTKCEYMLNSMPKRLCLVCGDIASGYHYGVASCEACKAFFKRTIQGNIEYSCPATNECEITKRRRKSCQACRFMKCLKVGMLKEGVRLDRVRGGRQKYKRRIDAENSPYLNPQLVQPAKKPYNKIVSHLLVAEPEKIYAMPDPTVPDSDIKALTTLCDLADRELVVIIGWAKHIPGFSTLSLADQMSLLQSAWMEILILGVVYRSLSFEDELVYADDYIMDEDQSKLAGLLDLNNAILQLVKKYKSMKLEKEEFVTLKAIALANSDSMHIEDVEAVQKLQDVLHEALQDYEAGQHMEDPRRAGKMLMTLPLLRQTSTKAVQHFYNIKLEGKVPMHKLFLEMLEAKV
Test: Displacement of [3H]4-OHT from ERRgamma at 3 uM

SMILES | IC50
CN(C)CCOc1ccc(/C(=C(/CCCC(=O)O)c2ccccc2)c2ccc(O)cc2)cc1 | Not Active
CNCCC/C(=C(\c1ccc(O)cc1)c1ccc(OCCN(C)C)cc1)c1ccccc1 | Not Active
CN(C)CCC/C(=C(\c1ccc(O)cc1)c1ccc(OCCN(C)C)cc1)c1ccccc1 | Not Active
CC(=O)NCCC/C(=C(\c1ccc(O)cc1)c1ccc(OCCN(C)C)cc1)c1ccccc1 | Not Active

Target: T2, Estrogen-related receptor gamma

SMILES | IC50
CN(C)CCOc1ccc(/C(=C(/CCCl)c2ccccc2)c2ccc(O)cc2)cc1 [4-HYDROXYTORMIFENE] | 13 nM
CN(C)CCOc1ccc(/C(=C(/CCCCO)c2ccccc2)c2ccc(O)cc2)cc1 | 790 nM
CN(C)CCOc1ccc(/C(=C(/CCCCl)c2ccccc2)c2ccc(O)cc2)cc1 | 130 nM
CN(C)CCOc1ccc(/C(=C(/CCCN=[N+]=[N-])c2ccccc2)c2ccc(O)cc2)cc1 | 160 nM
CN(C)CCOc1ccc(/C(=C(/CCN=[N+]=[N-])c2ccccc2)c2ccc(O)cc2)cc1 | 5 nM
CSCCC/C(=C(\c1ccc(O)cc1)c1ccc(OCCN(C)C)cc1)c1ccccc1 | 1000 nM
CN(C)CCOc1ccc(/C(=C(/CCCC#N)c2ccccc2)c2ccc(O)cc2)cc1 | 200 nM
CN(C)CCOc1ccc(/C(=C(/CCC#N)c2ccccc2)c2ccc(O)cc2)cc1 | 1300 nM
